A word on the IC50: it is the point on the concentration scale where inhibition reaches its midpoint.

Read-outs that look alike come from different tables or passages of the source.

Assay [1] deals with T1, His-GST-TVMV-hRIPK1(1-324) (Homo sapiens, UniProt Q13546).
T1 construct: The coding region of human RIPK1(1-324) flanked by NdeI site at 5′ end; made in house; host or cells: Spodoptera frugiperda Sf9 insect cells (baculovirus, Bac-to-Bac)
T1 sequence (Q13546 1-324): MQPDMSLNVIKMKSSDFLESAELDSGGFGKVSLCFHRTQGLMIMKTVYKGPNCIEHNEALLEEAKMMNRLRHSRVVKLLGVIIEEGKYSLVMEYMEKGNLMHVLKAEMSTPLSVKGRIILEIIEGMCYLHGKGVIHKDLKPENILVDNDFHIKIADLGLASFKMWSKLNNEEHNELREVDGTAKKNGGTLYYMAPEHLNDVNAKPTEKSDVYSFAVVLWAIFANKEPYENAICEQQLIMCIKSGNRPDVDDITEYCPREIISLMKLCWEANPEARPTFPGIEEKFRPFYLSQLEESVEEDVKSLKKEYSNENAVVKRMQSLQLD
Put plainly: biochemical. Type of assay: binding.

Assay [2] deals with MLKL phosphorylation in HT29-L23 human colorectal adenocarcinoma cells. Nature of the assay: MLKL phosphorylation high-content assay. Type of assay: cell-based.
Setting [3] is: HTRF probe displacement, 1 h at rt, read-out: RIPK1 IC50.
Where [4] appears, read: read-out: pMLKL IC50, HT29-L23 cells, necroptosis induced with TNFα, SMAC mimetic and Z-VAD, 6 h, maximal inhibition defined by Nec1s.
[5] abbreviates: Homo sapiens, 6 h, read-out: pMLKL IC50, HT29-L23 cells, necroptosis induced with TNFα, SMAC mimetic and Z-VAD, 6 h, maximal inhibition defined by Nec1s.

Take `Cc1nc(C)c(-c2ccn3nc(N)nc3c2)cc1C(=O)NCC(O)Cc1ccccc1` (stereo not shown) [Example 174]: the IC50 was determined as 48 nM in assay [1] (Table 23, representative compounds from WO2018/148626, read-out: RIPK1 IC50) and 205 nM in assay [2] (Homo sapiens, Table 23, representative compounds from WO2018/148626, read-out: pMLKL IC50).
`Cc1ccc(-c2ccn3nc(N)nc3c2)c(F)c1C(=O)NCCC(O)c1cccc(F)c1` (single isomer, unassigned) [Example 64, 3-(2-amino-[1,2,4]triazolo[1,5-a]pyridin-7-yl)-2-fluoro-N-(3-(3-fluorophenyl)-3-hydroxypropyl)-6-methylbenzamide]: the IC50 in assay [1] (setting [3]) stood at 12 nM; in assay [2] (setting [4]), 8 nM.
`Nc1nc2cc(-c3ccc(Cl)c(C(=O)NCC(F)C(O)c4ccc(Cl)cc4)c3F)ccn2n1` (stereo not shown) [Example 128, 3-(2-amino-[1,2,4]triazolo[1,5-a]pyridin-7-yl)-6-chloro-N-(3-(4-chlorophenyl)-2-fluoro-3-hydroxypropyl)-2-fluorobenzamide]: the values for the IC50 in assay [1] (setting [3]) and in assay [2] (setting [5]) were 5 nM and 1.2 nM, respectively.
As for `Cc1ccc(-c2ccn3nc(N)nc3c2)c(F)c1C(=O)NCC(C)(F)C(O)c1ccc(F)cc1` (single isomer, unassigned) [Example 204, 3-(2-amino-[1,2,4]triazolo[1,5-a]pyridin-7-yl)-2-fluoro-N-(2-fluoro-3-(4-fluorophenyl)-3-hydroxy-2-methylpropyl)-6-methylbenzamide], the IC50 is 5.8 nM in assay [1] (setting [3]) and 2.7 nM in assay [2] (setting [4]).
In the case of `[2H]C([2H])([2H])OC(c1ccc(F)cc1)C(F)(F)CNC(=O)c1c(C)ccc(-c2ccn3nc(N)nc3c2)c1F` (single isomer, unassigned) [Example 235, 3-(2-amino-[1,2,4]triazolo[1,5-a]pyridin-7-yl)-N-(2,2-difluoro-3-(4-fluorophenyl)-3-(methoxy-d3)propyl)-2-fluoro-6-methylbenzamide], the values for the IC50 in assay [1] (setting [3]) and in assay [2] (setting [5]) were 4.3 nM and 0.6 nM, respectively.
Taken in the same sequence, the figures for `CCc1cc(F)c(-c2ccn3nc(N)nc3c2)cc1C(=O)NCC[C@H](O)c1ccc(Cl)cc1` [Example 157] were 3.1 nM and 6.7 nM.
Consider `Nc1nc2cc(-c3ccc(Cl)c(C(=O)NCC(F)(F)C(O)c4cccc(F)c4)c3F)ccn2n1` (single isomer, unassigned) [Example 168, 3-{2-amino-[1,2,4]triazolo[1,5-a]pyridin-7-yl}-6-chloro-N-[2,2-difluoro-3-(3-fluorophenyl)-3-hydroxypropyl]-2-fluorobenzamide], for which the IC50 in assay [1] (setting [3]) is 0.3 nM; in assay [2] (setting [4]) it was 1.1 nM.
In the case of `Nc1nc2cc(-c3ccc(Cl)c(C(=O)NCCC(O)c4ccc(F)cc4)c3F)ccn2n1` (stereo not shown) [Example 78, 3-(2-amino-[1,2,4]triazolo[1,5-a]pyridin-7-yl)-6-chloro-2-fluoro-N-(3-(4-fluorophenyl)-3-hydroxypropyl)benzamide], the IC50 in assay [1] (setting [3]) was found to be 19 nM; in assay [1] (Table 22, compounds of the present invention, read-out: RPIK1 IC50), 19 nM; in assay [2] (setting [5]), 9.9 nM; in assay [2] (Homo sapiens, read-out: pMLKL IC50, Table 22, compounds of the present invention) it was 9.9 nM.
As to `Nc1nc2cc(-c3ccc(Cl)c(C(=O)NCCC(O)c4ccc(C(F)(F)F)cc4)c3F)ccn2n1` (single isomer, unassigned) [Example 86, 3-(2-amino-[1,2,4]triazolo[1,5-a]pyridin-7-yl)-6-chloro-2-fluoro-N-(3-hydroxy-3-(4-(trifluoromethyl)phenyl)propyl)benzamide], the results for the IC50 in assay [1] (setting [3]) and in assay [2] (setting [4]) were 2.2 nM and 7.5 nM, respectively.
In the same order, the values of `[2H]C([2H])([2H])c1ccc(-c2ccn3nc(N)nc3c2)c(F)c1C(=O)NCC1(C([2H])(O)c2ccc(F)cc2)CC1` (single isomer, unassigned) [Example 310, 3-(2-amino-[1,2,4]triazolo[1,5-a]pyridin-7-yl)-2-fluoro-N-((1-((4-fluorophenyl) (hydroxy)methyl-d)cyclopropyl)methyl)-6-(methyl-d3)benzamide] are 5.7 nM and 20 nM.

The record behind these values is patent publication US11767322B2 (BRISTOL-MYERS SQUIBB COMPANY, priority 2020, dated 2023).
